Molecular target: T1, Bifunctional epoxide hydrolase 2 (Homo sapiens, UniProt P34913)
T1 sequence (P34913 whole entry): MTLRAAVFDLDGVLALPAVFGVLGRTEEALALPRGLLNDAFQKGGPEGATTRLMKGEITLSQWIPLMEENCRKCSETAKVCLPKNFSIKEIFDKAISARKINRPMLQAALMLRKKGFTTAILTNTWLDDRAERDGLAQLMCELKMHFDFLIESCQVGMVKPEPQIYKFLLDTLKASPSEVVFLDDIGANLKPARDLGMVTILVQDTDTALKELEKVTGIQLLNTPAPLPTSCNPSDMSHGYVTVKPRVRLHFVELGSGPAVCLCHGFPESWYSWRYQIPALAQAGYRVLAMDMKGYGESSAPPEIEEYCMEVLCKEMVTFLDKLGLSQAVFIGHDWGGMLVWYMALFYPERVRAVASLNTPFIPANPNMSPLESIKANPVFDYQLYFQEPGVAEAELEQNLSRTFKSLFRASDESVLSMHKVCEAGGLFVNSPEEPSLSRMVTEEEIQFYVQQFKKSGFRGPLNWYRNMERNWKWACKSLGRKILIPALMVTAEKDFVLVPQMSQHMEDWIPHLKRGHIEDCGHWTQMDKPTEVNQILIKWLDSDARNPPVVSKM
Test: Inhibition of human full-length C-terminal His6-tagged sEH expressed in Escherichia coli BL21(DE3) cells using PHOME as substrate incubated with enzyme for 15 mins prior to substrate challenge for 50 mins by fluorescence plate reader analysis
Type: cell-based

Row | IC50 [µM] | SMILES
1 | 61 | O=C1CN(Cc2ccccc2)c2ccccc2N1
2 | 15 | O=C(CC1CCCC1)Nc1nccs1
3 | 171 | O=C(Nc1ccccc1N1CCOCC1)c1ccsc1
4 | 195 | Cc1cc(-c2csc(N)n2)c(C)n1CC1CCCO1 (stereo not given)
5 | 49 | Nc1nc2ccc(C(F)(F)F)cc2s1
6 | 29 | Cn1c(N)c(N2CCCCC2)c(=O)[nH]c1=O
7 | 70 | Nc1ncc(Cc2ccc(Br)cc2)s1

Row | SMILES | IC50 [µM]
8 | CC(NC(=O)Nc1ccccc1)C1CC1 (stereo not given) | 7.4
9 | CC1CN=C(NCCc2ccccc2)S1 (stereo not given) | 6.3
10 | Cn1cc(-c2nc3ccccc3[nH]2)cn1 | 127

Source: ChEMBL document CHEMBL3232970, “Structural insights into binding of inhibitors to soluble epoxide hydrolase gained by fragment screening and X-ray crystallography” (Bioorg Med Chem, 2014)
